The test system of this test is CEBPB expression in LPS-stimulated THP-1 cells. Kind of test: CEBPB expression in nascent RNAs of LPS-stimulated THP-1 cells (nascent RNA sequencing). Format: cell-based. The note with it: 10 ng/mL LPS and 250 μM 2′FL, CEBPB enhanced and upregulated. As for the experimental part: THP-1 Cells were treated with 10 ng/mL LPS or 10 ng/mL LPS and 250 μM 2′F and extracted for nascent RNAs at 30 min and 24 hours. The nascent RNAs were sequenced and analyzed as described in Azofeifa et al. (2018), Genome Res. 28: 334-344; the contents of which are expressly incorporated by reference herein.

This is an account of results in US20240148040A1, “METHODS OF REDUCING EXERCISE-INDUCED INJURY OR ENHANCING MUSCLE RECOVERY AFTER EXERCISE” (intrinsic Medicine, Inc., priority 2020, published 2024).

As for `CC1O[C@@H](OC2[C@H](O[C@H]3C(O)C(O)C(O)O[C@H]3CO)OC(CO)[C@H](O)[C@@H]2O)C(O)[C@@H](O)[C@@H]1O` (some centres unmarked) [2′FL, 2′-fucosyllactose], the “CEBPB maximum enrichment score (nascent RNAs, 2′FL+LPS treated cells versus LPS alone)” value by setting is: (30 min) 40; (24 hours) 20.
